Test results as given in patent publication US11254663B2 (BRISTOL-MYERS SQUIBB COMPANY, priority 2019, dated 2022).

Each compound was assayed against FXR (Homo sapiens (Human), UniProt Q96RI1) (assay: transient human FXR/Gal4-luciferase reporter assay). Details: not given.
Type: cell-based
How it was run: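 Compound exposure ran overnight at 37 °C and activity was measured as luminescence with Steady-Glo reagent. The cells were a HEK293 line stably expressing firefly luciferase under five Gal4 response elements. They were transiently transfected, one night beforehand, with a plasmid encoding Gal4 DNA-binding domain fused to the human FXR ligand-binding domain.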

Chain of FXR (Q96RI1 262-486): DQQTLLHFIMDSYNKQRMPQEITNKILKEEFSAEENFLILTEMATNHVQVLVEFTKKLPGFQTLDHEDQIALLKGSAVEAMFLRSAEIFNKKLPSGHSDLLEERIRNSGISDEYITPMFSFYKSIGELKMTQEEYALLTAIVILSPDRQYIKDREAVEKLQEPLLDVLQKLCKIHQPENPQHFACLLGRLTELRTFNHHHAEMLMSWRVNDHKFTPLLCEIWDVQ

Row | SMILES | EC50 [µM]
1 | CCOc1ncc(-c2cccc(N(CC34CCC(c5noc(C6(C(F)(F)F)CC6)n5)(CC3)CC4)C(=O)C34CC(F)(C3)C4)c2)cn1 [Example 525, N-(3-(2-ethoxypyrimidin-5-yl)phenyl)-3-fluoro-N-((4-(5-(1-(trifluoromethyl)cyclopropyl)-1,2,4-oxadiazol-3-yl)bicyclo[2.2.2]octan-1-yl)methyl)bicyclo[1.1.1]pentane-1-carboxamide] | 0.142
2 | Cc1nc2ccc(-c3cncc(N(CC45CCC(c6noc(C(C)(C)C)n6)(CC4)CC5)C(=O)C45CC(F)(C4)C5)c3)cc2s1 [Example 484, N-((4-(5-(tert-butyl)-1,2,4-oxadiazol-3-yl)bicyclo[2.2.2]octan-1-yl)methyl)-3-fluoro-N-(5-(2-methylbenzo[d]thiazol-6-yl)pyridin-3-yl)bicyclo[1.1.1]pentane-1-carboxamide] | 0.344
3 | CC(C)(O)c1ccc(-c2cccc(N(CC34CCC(c5noc(C(C)(C)F)n5)(CC3)CC4)C(=O)NCC3(CO)CCOCC3)c2)cc1 [Example 647, 1-((4-(5-(2-fluoropropan-2-yl)-1,2,4-oxadiazol-3-yl)bicyclo[2.2.2]octan-1-yl)methyl)-3-((4-(hydroxymethyl)tetrahydro-2H-pyran-4-yl)methyl)-1-(4′-(2-hydroxypropan-2-yl)-[1,1′-biphenyl]-3-yl)urea] | 0.581
4 | Cc1nc2ccc(-c3cccc(N(CC45CCC(c6nc(C7CC7)no6)(CC4)OC5)C(=O)C4CC(F)(F)C4)c3)cc2s1 [Example 565, N-((1-(3-cyclopropyl-1,2,4-oxadiazol-5-yl)-2-oxabicyclo[2.2.2]octan-4-yl)methyl)-3,3-difluoro-N-(3-(2-methylbenzo[d]thiazol-6-yl)phenyl)cyclobutane-1-carboxamide] | 0.947

Same assay, conditions: Gal4-hFXR fusion construct, HEK293 reporter cells; response relative to 8 μM GW-4064

Row | SMILES | EC50 [µM]
5 | CC(C)(O)c1ccc(-c2cccc(N(C[C@]34CC[C@](c5noc(C(C)(C)F)n5)(CC3)CC4)C(=O)C3CC(O)(C(F)(F)F)C3)c2)cc1 (stereo partly drawn) [Example 576, (cis)-N-((4-(5-(2-fluoropropan-2-yl)-1,2,4-oxadiazol-3-yl)bicyclo[2.2.2]octan-1-yl)methyl)-3-hydroxy-N-(4′-(2-hydroxypropan-2-yl)-[1,1′-biphenyl]-3-yl)-3-(trifluoromethyl)cyclobutane-1-carboxamide] | 0.019
6 | COc1cnc(-c2cccc(N(CC34CCC(c5nc(C(C)(C)C)no5)(CC3)CC4)C(=O)C34CC(F)(C3)C4)c2)nc1 [Example 369, N-((4-(3-(tert-butyl)-1,2,4-oxadiazol-5-yl)bicyclo[2.2.2]octan-1-yl)methyl)-3-fluoro-N-(3-(5-methoxypyrimidin-2-yl)phenyl)bicyclo[1.1.1]pentane-1-carboxamide] | 0.068
7 | CCOc1ncc(-c2cccc(N(CC34CCC(c5nc(C(C)(C)C)no5)(CC3)CC4)C(=O)C34CC(F)(C3)C4)c2)cn1 [Example 357, N-((4-(3-(tert-butyl)-1,2,4-oxadiazol-5-yl)bicyclo[2.2.2]octan-1-yl)methyl)-N-(3-(2-ethoxypyrimidin-5-yl)phenyl)-3-fluorobicyclo[1.1.1]pentane-1-carboxamide] | 0.083
8 | CC(F)(F)c1nc(C23CCC(CN(C(=O)OC(C)(C)C(F)(F)F)c4cc(-c5ccc(OC(F)(F)Cl)cc5)ccn4)(CC2)CC3)no1 [Example 615, 1,1,1-trifluoro-2-methylpropan-2-yl (4-(4-(chlorodifluoromethoxy)phenyl)pyridin-2-yl)((4-(5-(1,1-difluoroethyl)-1,2,4-oxadiazol-3-yl)bicyclo[2.2.2]octan-1-yl)methyl)carbamate] | 0.473
9 | Cc1nc2ncc(-c3cccc(N(CC45CCC(c6nc(C(C)C)no6)(CC4)CC5)C(=O)C45CC(F)(C4)C5)c3)cc2s1 [Example 389, 3-fluoro-N-((4-(3-isopropyl-1,2,4-oxadiazol-5-yl)bicyclo[2.2.2]octan-1-yl)methyl)-N-(3-(2-methylthiazolo[4,5-b]pyridin-6-yl)phenyl)bicyclo[1.1.1]pentane-1-carboxamide] | 0.061
10 | O=C(N(CC12CCC(c3nc(C4CC4)no3)(CC1)CC2)c1cccc(-c2ccc(OC(F)F)cc2)c1)C12CC(F)(C1)C2 [Example 308, N-((4-(3-cyclopropyl-1,2,4-oxadiazol-5-yl)bicyclo[2.2.2]octan-1-yl)methyl)-N-(4′-(difluoromethoxy)-[1,1′-biphenyl]-3-yl)-3-fluorobicyclo[1.1.1]pentane-1-carboxamide] | 0.015
11 | Cc1nc2ncc(-c3cccc(N(CC45CCC(c6noc(C(C)(C)C)n6)(CC4)CC5)C(=O)C45CC(F)(C4)C5)c3)cc2s1 [Example 449, N-((4-(5-(tert-butyl)-1,2,4-oxadiazol-3-yl)bicyclo[2.2.2]octan-1-yl)methyl)-3-fluoro-N-(3-(2-methylthiazolo[4,5-b]pyridin-6-yl)phenyl)bicyclo[1.1.1]pentane-1-carboxamide] | 0.098
12 | CC(C)c1nc(C23CCC(CN(C(=O)C45CC(F)(C4)C5)c4cccc(-c5cnc(C(F)(F)F)nc5)c4)(CC2)CC3)no1 [Example 435, 3-fluoro-N-((4-(5-isopropyl-1,2,4-oxadiazol-3-yl)bicyclo[2.2.2]octan-1-yl)methyl)-N-(3-(2-(trifluoromethyl)pyrimidin-5-yl)phenyl)bicyclo[1.1.1]pentane-1-carboxamide] | 0.24
13 | CC(C)c1noc(C23CCC(CN(C(=O)C45CC(F)(C4)C5)c4cccc(-c5ccc6c(c5)OC(F)(F)O6)c4)(CC2)CC3)n1 [Example 386, N-(3-(2,2-difluorobenzo[d][1,3]dioxol-5-yl)phenyl)-3-fluoro-N-((4-(3-isopropyl-1,2,4-oxadiazol-5-yl)bicyclo[2.2.2]octan-1-yl)methyl)bicyclo[1.1.1]pentane-1-carboxamide] | 0.274
14 | CC(C)Oc1ccc(-c2cccc(N(CC34CCC(c5noc(C(C)(C)F)n5)(CC3)CC4)C(=O)OC(C)(C)C(F)(F)F)c2)cc1 [Example 584, 1,1,1-trifluoro-2-methylpropan-2-yl ((4-(5-(2-fluoropropan-2-yl)-1,2,4-oxadiazol-3-yl)bicyclo[2.2.2]octan-1-yl)methyl)(4′-isopropoxy-[1,1′-biphenyl]-3-yl)carbamate] | 0.031
15 | CC(C)(C)c1nc(C23CCC(CN(C(=O)C45CC(F)(C4)C5)c4cccc(-c5ccc(NS(=O)(=O)C(F)(F)F)cc5)c4)(CC2)CC3)no1 [Example 446, N-((4-(5-(tert-butyl)-1,2,4-oxadiazol-3-yl)bicyclo[2.2.2]octan-1-yl)methyl)-3-fluoro-N-(4′-((trifluoromethyl)sulfonamido)-[1,1′-biphenyl]-3-yl)bicyclo[1.1.1]pentane-1-carboxamide] | 0.225
16 | COCc1ccc(-c2cccc(N(CC34CCC(c5nc(C6CC6)no5)(CC3)CC4)C(=O)C34CC(F)(C3)C4)c2)cn1 [Example 274, N-((4-(3-cyclopropyl-1,2,4-oxadiazol-5-yl)bicyclo[2.2.2]octan-1-yl)methyl)-3-fluoro-N-(3-(6-(methoxymethyl)pyridin-3-yl)phenyl)bicyclo[1.1.1]pentane-1-carboxamide] | 0.106
17 | N#CC1(c2ccc(-c3cccc(N(CC45CCC(c6nc(C7CC7)no6)(CC4)CC5)C(=O)C45CC(F)(C4)C5)c3)cc2)CC1 [Example 279, N-(4′-(1-cyanocyclopropyl)-[1,1′-biphenyl]-3-yl)-N-((4-(3-cyclopropyl-1,2,4-oxadiazol-5-yl)bicyclo[2.2.2]octan-1-yl)methyl)-3-fluorobicyclo[1.1.1]pentane-1-carboxamide] | 0.125
18 | CC(C)(C)c1noc(C23CCC(CN(C(=O)C45CC(F)(C4)C5)c4cccc(-c5cnc(C(F)(F)F)nc5)c4)(CC2)CC3)n1 [Example 366, N-((4-(3-(tert-butyl)-1,2,4-oxadiazol-5-yl)bicyclo[2.2.2]octan-1-yl)methyl)-3-fluoro-N-(3-(2-(trifluoromethyl)pyrimidin-5-yl)phenyl)bicyclo[1.1.1]pentane-1-carboxamide] | 0.454
19 | CC1(c2nc(C34CCC(CN(C(=O)C56CC(F)(C5)C6)c5cccc(-c6cnc(C(F)(F)F)nc6)c5)(CC3)CC4)no2)CC1 [Example 404, 3-fluoro-N-((4-(5-(1-methylcyclopropyl)-1,2,4-oxadiazol-3-yl)bicyclo[2.2.2]octan-1-yl)methyl)-N-(3-(2-(trifluoromethyl)pyrimidin-5-yl)phenyl)bicyclo[1.1.1]pentane-1-carboxamide] | 0.221
20 | CC(C)(C#N)Oc1ccc(-c2cccc(N(CC34CCC(c5noc(C6(F)CC6)n5)(CC3)CC4)C(=O)C3CC(O)(C(F)(F)F)C3)c2)cc1 (stereo not drawn) [Example 583, (cis)-N-(4′-((2-cyanopropan-2-yl)oxy)-[1,1′-biphenyl]-3-yl)-N-((4-(5-(1-fluorocyclopropyl)-1,2,4-oxadiazol-3-yl)bicyclo[2.2.2]octan-1-yl)methyl)-3-hydroxy-3-(trifluoromethyl)cyclobutane-1-carboxamide] | 0.049
21 | CC(C)(C)c1nc(C23CCC(CN(C(=O)C45CC(F)(C4)C5)c4cccc(-c5ncc(OC(F)F)cn5)c4)(CC2)CC3)no1 [Example 452, N-((4-(5-(tert-butyl)-1,2,4-oxadiazol-3-yl)bicyclo[2.2.2]octan-1-yl)methyl)-N-(3-(5-(difluoromethoxy)pyrimidin-2-yl)phenyl)-3-fluorobicyclo[1.1.1]pentane-1-carboxamide] | 0.017
22 | Cc1c(-c2cccc(N(CC34CCC(c5nc(C6CC6)no5)(CC3)CC4)C(=O)C34CC(F)(C3)C4)c2)cn2ncnc2c1C [Example 312, N-((4-(3-cyclopropyl-1,2,4-oxadiazol-5-yl)bicyclo[2.2.2]octan-1-yl)methyl)-N-(3-(7,8-dimethyl-[1,2,4]triazolo[1,5-a]pyridin-6-yl)phenyl)-3-fluorobicyclo[1.1.1]pentane-1-carboxamide] | 0.916
23 | COc1ccc(-c2cccc(N(CC34CCC(c5nc(C(C)C)no5)(CC3)CC4)C(=O)C34CC(F)(C3)C4)c2)cn1 [Example 382, 3-fluoro-N-((4-(3-isopropyl-1,2,4-oxadiazol-5-yl)bicyclo[2.2.2]octan-1-yl)methyl)-N-(3-(6-methoxypyridin-3-yl)phenyl)bicyclo[1.1.1]pentane-1-carboxamide] | 0.098
